For 19 molecules, Ki and IC50 results are on record in patent publication US8680111B2 (Pfizer Inc., priority 2012, dated 2014).

Test [1] deals with T1, human recombinant wild-type ALK kinase domain (amino acids 1093-1411) (Homo sapiens, UniProt Q9UM73).
T1 construct: ALK kinase domain (amino acids 1093-1411); made in house
Description: Wild-type ALK enzyme assay (microfluidic mobility shift). The following applies: ATP 60 μM, competitive inhibition fit, read-out: WT ALK enzyme assay (Ki). It is filed as biochemical.
Description: The reactions were incubated for 1 h at room temperature, stopped by the addition of 0.1 M EDTA, pH 8, and the extent of reactions (˜15-20% conversion with no inhibitor) was determined after electrophoretic separation of the fluorescently labeled peptide substrate and phosphorylated product on an LabChip EZ Reader II (Caliper Life Sciences, Hopkinton, Mass.).

For test [2], the target named is T2, human recombinant L1196M ALK kinase domain (amino acids 1093-1411) (Homo sapiens, UniProt Q9UM73, L1196M).
T2 construct: ALK kinase domain (amino acids 1093-1411); made in house
The experiment in a line: L1196M mutant ALK enzyme assay (microfluidic mobility shift). The class given is biochemical. The following applies: ATP 60 μM, 0.5 nM enzyme, competitive inhibition fit; read-out: L1196M ALK enzyme assay (Ki).

Test [3] concerns the target T3, WT EML4-ALK (NIH-3T3 EML4-ALK wt v1 cells) (Homo sapiens, UniProt Q9UM73).
T3 construct: expressed in transfected cells; the other entry of the earlier key: EML4 (Q9HC35, Echinoderm microtubule-associated protein-like 4)
Description: Cellular phospho-ALK (Tyr1604) ELISA assay for WT EML4-ALK. The class given is cell-based. The following applies: 1 hour, read-out: ELISA assay for WT EML4-ALK (IC50). For orientation: In an ELISA, binding on a coated surface is turned into a signal by an enzyme label.
Description: (§1) Cellular Phospho-ALK (Tyr1604) ELISA Assay for EML4-ALK:
(§2) The cells were maintained at 37° C. in a 5% CO2 incubator in DMEM (Invitrogen, Carlsbad, Calif.) medium supplemented with 1% L-glutamine, 1% penicillin and streptomycin, 1 ug/ml puromycin and 10% new born calf serum (NCS) in T-75 flasks.
(§3) Cells were washed with PBS and re-suspended in DMEM medium supplemented with 0.5% NCS and 1% pen/strep and seeded into 96-well plates at density of 20,000 cells/well/100 μl and incubated in the incubator at 37° C. and 5% CO2. After 20 hours of incubation, 100 μl of assay media (DMEM) in presence of designated PF-compounds concentrations or controls (DMSO) were added into plates and incubated for 1 hour in the incubator. Media was then removed and lysis buffer, containing phosphatase inhibitors and phenylmethanesulfonyl fluoride (PMSF), was added to wells and shaken at 4° C. for 30 minutes to generate protein lysates.
(§4) A phospho-ALK (Tyr1604) rabbit antibody was coated onto the 96-well microplates. 50 μl of cell lysates were added to the antibody coated plate and incubated at room temperature for 2 hours. Following extensive washing with 0.1% Tween 20 in PBS to remove unbound materials, ALK mouse mAb was added to detect captured phospho-ALK (Tyr1604) and phospho-ALK fusion proteins. Anti-mouse IgG, HRP-linked antibody was then used to recognize the bound detection antibody. Finally, the chemiluminescent reagent was added and incubated for 10 minutes for signal development. The assay plates were read in the Envision plate reader in the luminescent mode. IC50 values were calculated by a concentration-response curve fitting using a four-parameter analytic method.

The target of test [4] is T4, L1196M EML4-ALK (NIH-3T3 EML4-ALK v1 L1196M cells) (Homo sapiens, UniProt Q9UM73, L1196M).
T4 construct: expressed in transfected cells; the other entry of the earlier key: EML4 (Q9HC35, Echinoderm microtubule-associated protein-like 4)
Description: Cellular phospho-ALK (Tyr1604) ELISA assay for L1196M EML4-ALK. It is filed as cell-based. The following applies: NIH-3T3 EML4-ALK v1 L1196M cells, 1 hour, phospho-ALK (Tyr1604); read-out: ELISA assay for L1196M EML4-ALK (IC50).
Description: as §1, §2, §3, §4

Consider `CC1Oc2nc(cnc2N)-c2c(nn(C)c2C#N)COCc2ccc(F)cc21` (single isomer, unassigned) [Example 105, 7-amino-12-fluoro-2,10-dimethyl-2,10,15,17-tetrahydro-8,4-(azeno)pyrazolo[4,3-h][2,11,5]benzodioxazacyclotetradecine-3-carbonitrile], for which the values for the Ki in test [1] and in test [2] were 3 nM and 16.7 nM, respectively. Moreover, the IC50 (usually the concentration needed to halve the response being measured) in test [3] amounted to 115 nM; in test [4], 642 nM.

Take `Cn1nc2c(c1C#N)-c1cnc(N)c(c1)OCc1cc(F)ccc1COC2` [Example 118, 7-amino-12-fluoro-2-methyl-2,10,15,17-tetrahydro-8,4-(metheno)pyrazolo-[4,3-h][2,11,5]benzodioxazacyclotetradecine-3-carbonitrile]: the inhibition constant (Ki) (commonly the dissociation constant of the complex between target and ligand, obtained from inhibition or displacement) in test [1] was 17.8 nM; in test [2], 64.7 nM. Also, the figures for the IC50 in test [3] and in test [4] were 217 nM and 1400 nM, respectively.

With `CC(C)n1nc2c(c1C#N)-c1cnc(N)c(n1)O[C@H](C)c1cc(F)ccc1C(=O)N(C)C2` [Example 92, (10R)-7-amino-12-fluoro-10,16-dimethyl-15-oxo-2-(propan-2-yl)-10,15,16,17-tetrahydro-2H-8,4-(azeno)pyrazolo[4,3-h][2,5,11]benzoxadiazacyclotetradecine-3-carbonitrile], the Ki in test [1] is 0.23 nM; in test [2], 0.21 nM. The IC50 in test [3] amounted to 0.47 nM; in test [4], 3.66 nM.

For `CC1Oc2cc(F)ccc2C(=O)N(C)Cc2nn(C)c(C#N)c2-c2cnc(N)c1c2` (single isomer, unassigned) [Example 76, 7-amino-12-fluoro-2,9,16-trimethyl-15-oxo-2,15,16,17-tetrahydro-9H-8,4-(metheno)pyrazolo[4,3-h][1,5,11]benzoxadiazacyclotetradecine-3-carbonitrile], the figures for the Ki in test [1] and in test [2] were 3.1 nM and 1.9 nM, respectively. For the same molecule, the IC50 came out at 95.6 nM in test [3] and 109 nM in test [4].

As for `CC1Cc2cc(cnc2N)-c2c(nn(C)c2C#N)CN(C)C(=O)c2ccc(F)cc21` (stereo not shown) [Example 61, 7-amino-12-fluoro-2,10,16-trimethyl-15-oxo-2,9,10,15,16,17-hexahydro-8,4-(metheno)pyrazolo[3,4-d][2,8]benzodiazacyclotetradecine-3-carbonitrile], the Ki is 0.15 nM in test [1] and 0.17 nM in test [2]. Further, the IC50 in test [3] stood at 4.82 nM; in test [4], 17.1 nM.

`CCc1nsc2c1-c1cnc(N)c(c1)O[C@H](C)c1cc(F)ccc1C(=O)N(C)C2` [Example 112, (10R)-7-amino-3-ethyl-12-fluoro-10,16-dimethyl-16,17-dihydro-8,4-(metheno)[1,2]thiazolo[4,5-h][2,5,11]benzoxadiazacyclotetradecin-15(10H)-one]: the inhibitory constant (Ki) is 0.32 nM in test [1] and 3.4 nM in test [2]. The values for the IC50 in test [3] and in test [4] were 9.67 nM and 248 nM, respectively.

On to `COc1snc2c1-c1cnc(N)c(c1)O[C@H](C)c1cc(F)ccc1C(=O)N(C)C2` [Example 3, (10R)-7-amino-12-fluoro-3-methoxy-10,16-dimethyl-16,17-dihydro-8,4-(metheno)isothiazolo[4,3-h][2,5,11]benzoxadiazacyclotetradecin-15(10H)-one], for which the Ki was under 0.2 nM in test [1] and 0.2 nM in test [2]. Moreover, the IC50 in test [3] was found to be 0.99 nM; in test [4], 22.2 nM.

Regarding `CC1Oc2nc(cnc2N)-c2c(C#N)nn3c2C(CC3)N(C)C(=O)c2ccc(F)cc21` [Example 74, (9R)-6-amino-11-fluoro-9,15-dimethyl-14-oxo-9,14,15,15a,16,17-hexahydro-7,3-(azeno)-8-oxa-1,5,15,17a-tetraazabenzo[11,12]cyclotetradeca[1,2,3-cd]pentalene-2-carbonitrile], the Ki in test [1] is 0.3 nM; in test [2], 0.86 nM. For the same molecule, the half-maximal inhibitory concentration (IC50) in test [3] worked out at 11.4 nM; in test [4], 51.9 nM.

Take `COc1nccc2c1-c1cnc(N)c(n1)OC(C)c1cc(F)ccc1C(=O)N(C)C2` (single isomer, unassigned) [Example 31, 8-amino-13-fluoro-4-methoxy-11,17-dimethyl-17,18-dihydro-9,5-(azeno)pyrido[3,4-h][2,5,11]benzoxadiazacyclotetradecin-16(11H)-one]: the Ki in test [1] was found to be 5.96 nM; in test [2], 15.8 nM. The IC50 amounted to 53.2 nM in test [3] and 660 nM in test [4].

With `C[C@H]1Oc2nc(cnc2N)-c2c(nn(CC(F)F)c2C#N)CN(C)C(=O)c2ccc(F)cc21` [Example 91, (10R)-7-amino-2-(2,2-difluoroethyl)-12-fluoro-10,16-dimethyl-15-oxo-10,15,16,17-tetrahydro-2H-8,4-(azeno)pyrazolo[4,3-h][2,5,11]benzoxadiazacyclotetradecine-3-carbonitrile], the figures for the Ki in test [1] and in test [2] were 0.177 nM and 0.315 nM, respectively. Moreover, the IC50 in test [3] turned out to be 0.68 nM; in test [4], 5.88 nM.

For `C[C@H]1Oc2cc(cnc2N)-c2c(nnn2CC2CCC2)CN(C)C(=O)c2ccc(F)cc21` [Example 135, (10R)-7-amino-3-(cyclobutylmethyl)-12-fluoro-10,16-dimethyl-16,17-dihydro-3H-8,4-(metheno)[1,2,3]triazolo[4,5-h][2,5,11]benzoxadiazacyclotetradecin-15(10H)-one], the Ki came out at 2.1 nM in test [1] and 12.6 nM in test [2]. Besides, the IC50 in test [3] amounted to 45.9 nM; in test [4] it was 814 nM.

In the case of `C[C@H]1Oc2cc(cnc2N)-c2c(nn(C)c2C#N)CNC(=O)c2ccc(F)cc21` [Example 132, (10R)-7-amino-12-fluoro-2,10-dimethyl-15-oxo-10,15,16,17-tetrahydro-2H-8,4-(metheno)pyrazolo[4,3-h][2,5,11]benzoxadiazacyclotetradecine-3-carbonitrile], the Ki stood at 3.32 nM in test [1] and 16.5 nM in test [2]. The figures for the IC50 in test [3] and in test [4] were 35.3 nM and 892 nM, respectively.

Turning to `CN1Cc2nn(C)c(C#N)c2-c2cnc(N)c(c2)OCc2cc(F)ccc2C1=O` [Example 4, 7-amino-12-fluoro-2,16-dimethyl-15-oxo-10,15,16,17-tetrahydro-2H-8,4-(metheno)pyrazolo[4,3-h][2,5,11]benzoxadiazacyclotetradecine-3-carbonitrile], the Ki in test [1] is under 0.2 nM; in test [2] it was 1.2 nM. Further, the concentration for half-maximal inhibition (IC50) stood at 28.1 nM in test [3] and 184 nM in test [4].

`CC1Oc2nc(cnc2N)-c2c(C#N)nn3c2C(CC3)N(C)C(=O)c2ccc(F)cc21` [Example 75, (9R)-6-amino-11-fluoro-9,15-dimethyl-14-oxo-9,14,15,15a,16,17-hexahydro-7,3-(azeno)-8-oxa-1,5,15,17a-tetraazabenzo[11,12]cyclotetradeca[1,2,3-cd]pentalene-2-carbonitrile]: the values for the inhibition constant (Ki) in test [1] and in test [2] were 0.065 nM and 0.095 nM, respectively. In addition, the IC50 in test [3] came out at 0.902 nM; in test [4], 7.06 nM.

Take `CC1Cc2cc(cnc2N)-c2c(nn(C)c2C#N)CN(C)C(=O)c2ccc(F)cc21` (single isomer, unassigned) [Example 64, 7-amino-12-fluoro-2,10,16-trimethyl-15-oxo-2,9,10,15,16,17-hexahydro-8,4-(metheno)pyrazolo[3,4-d][2,8]benzodiazacyclotetradecine-3-carbonitrile]: the Ki in test [1] stood at 34.4 nM; in test [2] it was 33.3 nM. For the same molecule, the results for the IC50 in test [3] and in test [4] were 407 nM and 1190 nM, respectively.

For `COc1nn(C)c2c1-c1cnc(N)c(c1)OC(C1CC1)c1cc(F)ccc1C(=O)N(C)C2` (single isomer, unassigned) [Example 26, 7-amino-10-cyclopropyl-12-fluoro-3-methoxy-1,16-dimethyl-16,17-dihydro-1H-8,4-(metheno)pyrazolo[4,3-h][2,5,11]benzoxadiazacyclotetradecin-15(10H)-one], the values for the inhibition constant (Ki) in test [1] and in test [2] were 3.3 nM and 15 nM, respectively. The IC50 came to 50.5 nM in test [3] and 511 nM in test [4].

For the molecule `C[C@H]1Oc2nc(cnc2N)-c2c(C#N)nn(C)c2CN(C)C(=O)c2ccc(F)cc21` [Example 115, (10R)-7-amino-12-fluoro-1,10,16-trimethyl-15-oxo-10,15,16,17-tetrahydro-1H-8,4-(azeno)pyrazolo[4,3-h][2,5,11]benzoxadiazacyclotetradecine-3-carbonitrile], the results for the Ki in test [1] and in test [2] were under 0.08 nM and 0.09 nM, respectively. Moreover, the results for the IC50 in test [3] and in test [4] were 0.96 nM and 8.18 nM, respectively.

On to “12-fluoro-1,14-dimethyl-1,4,5,6,7,8-hexahydro-14H-16,20-(metheno)-pyrazolo[4,3-g][1,14,11]benzodioxazacycloheptadecin-17-amine [Example 95]”, for which the inhibition constant (Ki) in test [1] stood at 0.35 nM; in test [2], 1.9 nM. Moreover, the IC50 came out at 10.4 nM in test [3] and 169 nM in test [4].

`CCn1ncc2c1-c1cnc(N)c(c1)O[C@H](C)c1cc(F)ccc1C(=O)N(C)C2` [Example 27, (10R)-7-amino-3-ethyl-12-fluoro-10,16-dimethyl-16,17-dihydro-3H-8,4-(metheno)pyrazolo[3,4-h][2,5,11]benzoxadiazacyclotetradecin-15(10H)-one]: the Ki in test [1] worked out at 0.38 nM; in test [2], 5.3 nM. Also, the IC50 in test [3] worked out at 9.15 nM; in test [4], 157 nM.
